Data published in article PMC3152580 (Journal of the American Chemical Society, 2011).

Target: E. coli Alkaline Phosphatase (AP) (Escherichia coli, UniProt P00634)
Format: biochemical
Details: pH 8

Sequence of E. coli Alkaline Phosphatase (AP) (P00634 22-471): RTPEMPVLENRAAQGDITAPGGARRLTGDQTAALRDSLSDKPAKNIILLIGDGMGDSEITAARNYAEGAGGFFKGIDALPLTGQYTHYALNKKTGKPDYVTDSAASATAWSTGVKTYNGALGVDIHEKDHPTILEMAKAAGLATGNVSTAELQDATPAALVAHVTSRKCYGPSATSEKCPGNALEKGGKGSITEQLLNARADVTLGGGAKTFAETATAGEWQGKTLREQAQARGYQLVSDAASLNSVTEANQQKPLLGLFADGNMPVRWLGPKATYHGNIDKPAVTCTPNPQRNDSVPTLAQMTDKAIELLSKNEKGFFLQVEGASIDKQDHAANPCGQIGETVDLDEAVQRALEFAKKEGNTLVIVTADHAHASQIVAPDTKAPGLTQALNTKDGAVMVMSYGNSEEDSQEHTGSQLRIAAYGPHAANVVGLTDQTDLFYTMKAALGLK

O=S(=O)(O)O [sulfate]
differential binding energy between Pi and sulfate binding: at least 8.5 kcal/mol | inhibition of AP by sulfate: No significant inhibition
